Assay results from patent US20110092488A1, “Quninoline Methanol Compounds for the Treatment and Prevention of Parasitic Infections” (priority 2005, published 2011).
In brackets after ≈: the same amount, converted by molar mass. Entries after “also recorded” stand apart in the source; their conditions may differ. Blank lines part the entries; values can stand above or below the compound they belong to.

Legend:
[1] = test system: Plasmodium falciparum malaria; settings: P. falciparum malaria, South East Asia; WR030090: field trials; cited from earlier work
[2] = test system: P. falciparum D6; assay: In vitro antimalarial activity against P. falciparum D6; format: cell-based, Plasmodium falciparum; settings: Plasmodium falciparum, D6; FIG. 5; read-out: IC50 against P. falciparum D6, compound alone
Description: (§1) The in vitro activities of AAQMs against P. falciparum strains W2, D6, TM91C235 and TM90C2A were evaluated using the method of Desjardins et al. as modified by Milhous et al. W2 is chloroquine resistant and mefloquine sensitive, D6 is chloroquine sensitive but naturally less susceptible to mefloquine, TM91C235 is resistant to mefloquine, chloroquine and pyrimethamine as is TM90C2A, however this latter parasite is a two pfmdr1 copy strain. We routinely run mefloquine in this screen as a control to ensure assay validity.
(§2) The combined effects of azithromycin (as represented by compound 196 on the horizontal axes of FIG. 4 through 6) and WR074086 (as represented by compound 14885 on vertical axes of FIGS. 4 through 6) against three strains of P. falciparum were investigated using isobologram analysis. First, the IC50s of each compound were determined as described above.

[3] = test system: P. falciparum D6; assay: Isobologram analysis azithromycin and WR074086, P. falciparum D6; format: cell-based, Plasmodium falciparum; settings: Line C FIG. 5: starting azithromycin 12500 ng/ml, WR074086 5 ng/ml
Description: as §2
Next, IC50s were determined with different fractional starting concentrations of each compound. For example in line C of FIG. 5, the starting concentration of azithromycin was 12500 ng/ml whereas the starting concentration of WR074086 was 5 ng/ml. Each of these starting concentrations is half of that used when each compound was tested alone. […] In the data tables, lines D-H represent other combinations of starting concentrations of each compound.
For each pair of starting concentrations for each drug, fractional inhibitory concentrations were determined using the following formula: FIC=IC50 in combination/IC50 alone.
The FICs for the eight tests are plotted as indicated in FIG. 4 through FIG. 6 for each of three P. falciparum strains. Graphs of this type are called isobolograms and additivity is represented by an overall FIC SUM of 1, as represented by the straight line joining the two axes. A potentiative effect is represented by a concave curve below the straight line, since IC50s in combination are lower than expected. Antagonism is represented by a convex curve above the straight line, since IC50s in combination are higher than expected.

[4] = test system: P. falciparum TM91C235; assay: In vitro antimalarial activity against P. falciparum TM91C235; format: cell-based, Plasmodium falciparum; settings: for TM91C235 IC90: Table 2
Description: as §1

[5] = Aotus, 10 mg/kg/day oral x7; for Plasma conc on day 1 (ng/ml) 2 h: day 1, 2 h; for Plasma conc on day 1 (ng/ml) 24 h: day 1, 24 h; for Plasma conc. on day 7 (ng/ml) 2 h: day 7, 2 h; for Plasma conc. on day 7 (ng/ml) 24 h: day 7, 24 h
Description: (§3) The P. berghei-mouse efficacy data were obtained from the WRAIR chemical information system (subcutaneous testing) or from recent tests conducted at AFRIMS, Thailand or at the University of Miami using a modified version of the Thompson test. Groups of five mice were inoculated through i.p. injection on day 0 (usually with 1×106 P. berghei-parasitized erythrocytes). The drugs in Table 1 were administered either subcutaneously or orally for three days (usually on days 3-5) at doses of 1.25-160 mg/kg in two to four fold increments. Cure was defined as survival until day 60 (subcutaneous dosing) or day 31 post-treatment (oral dosing). […] The minimum effective dose was the lowest dose level that cured at least one of five mice. The Aotus studies were performed according to Obaldia; Detection of Klebsiella pnuumoniae antibodies in Aotus l. lemurinus (Panamanian owl monkey) using an enzyme linked immunosorbent assay (ELIA) test; Lab Anim (25)133-141 (1991) and Obaldia et al., WR 238605, chloroquine, and their combinations as blood schizonticides against a chloroquine-resistant strain of Plasmodium vivax in Aotus monkeys; Am. J. Trop. Med. Hyg. (56)508-510 (1997), which are incorporated by reference, herein. Groups of two Aotus lemurinus 6 lemurinus of the karyotype VIII or IX (27) male and female monkeys with weights ranging from 742-970 g were inoculated with 5×10^6 parasites of either the FVO strain of P. falciparum or the AMRU1 strain of P. vivax. Both of these strains are chloroquine resistant. […] Monkeys were examined and thick Giemsa-stained blood smears were prepared and enumerated daily (17) to monitor the course of infection. […] In some instances, a high dose of the test drug was used to retreat monkeys instead of the mefloquine rescue. Monkeys are considered cured if they are parasite free 90 days post treatment. […] Plasma samples were taken from the monkeys in some studies for quantification of metabolites. Additional blood samples were taken as appropriate for complete blood counts and serum chemistry. Research was conducted in compliance with the Animal Welfare Act and other federal statutes and regulations relating to animals and experiments involving animals and adheres to principles stated in the Guide for the Care and Use of Laboratory Animals, NRC Publication, 1996 edition (34).

[6] = test system: FVO strain of P. falciparum; assay: Efficacy in P. falciparum-challenged Aotus monkeys; format: in vivo, Plasmodium falciparum in Aotus lemurinus lemurinus; settings: 10 mg/kg/day x7 oral; groups of two; Cure = parasite free 90 days; R = average day of recrudescence; Failure = rescued with mefloquine
Description: as §3

[7] = test system: primary rat forebrain neurons; assay: Neurocytotoxicity assay (MTT); settings: for IC50: read-out: Neurotoxicity ranking (IC50 in μM), approximate IC50 from screen at 10, 100 and 1000 μM, MTT
Description: The neurocytotoxicity assay of AAQMs was conducted as per Dow et al.; The antimalarial potential of 4-quinolinecarbinolamines may be limited due to neurotoxicity and cross-resistance in mefloquine-resistant Plasmodium falciparum strains; Chemother. (48) 2624-2632 (2004) and is incorporated herein, by reference. This assay utilizes primary rat forebrain neurons and is a multi-endpoint screen. […] The AAQMs outlined in Table 1 were screened at 10, 100 and 1000 μM in triplicate, and the reduction in viability observed was determined using the 3-(4,5-dimethylthiazol-2-yl)-2,5-diphenyltetrazolium bromide (MTT) assay as per Dow et al., discussed above. Approximate IC50 values were calculated on the basis of the level of inhibition observed at each concentration. Full dose response assays were run for mefloquine and WR069878 with two fold dilutions (n=6 wells per dilution) and 11 dilutions for each drug. IC50s were calculated using Prism. Each time the assay is conducted, 20 μM mefloquine is included, as a control. […] Assays are re-run if the loss of viability induced by mefloquine is <40% or >60%. Neuroprotection experiments with 6,7-dinitroquinoxaline-2,3-dione (DNQX) and magnesium were performed as per Dow et al.; Transcriptional profiling of mefloquine-induced disruption of calcium homeostasis in neurons in vitro; Genomics (86)539-550 (2005), which is incorporated by reference, herein. Neurons were exposed to DNQX (100 μM) or magnesium (12 mM) for 5 min, followed by mefloquine (25 μM) or WR069878 (250 μM) for 20 min after which reduction in cell viability was determined. […] DNQX is an inhibitor of non-N-methyl-D-aspartate (NMDA) receptors, whilst magnesium inhibits the functioning of the inositol 1,4,5-trisphosphate (IP3)-mediated calcium signaling pathway at several points. The effects of mefloquine and WR069878 on neuronal calcium homeostasis were assessed utilizing confocal microscopy as per Dow et al, as discussed in Antimicrob Agents Chemother. (48)2624-2632 (2004), cited above, and incorporated by reference, herein. Briefly neurons were loaded with calcium sensitive dye Fluo 3-A for 1 h and were washed prior to image experiments. Neurons were ‘spiked’ with 100 μM mefloquine or WR069878. Subsequent changes in neuronal calcium homeostasis were recorded as fluctuations in the emitted fluorescence of fluo-3-complexed calcium at 530 nm (excitation was 488 nm). Sequential image scans of fields containing 5-25 neurons were used to construct temporal profiles. Scans were made at 10 s intervals. Fluorescence levels for each neuron were normalized 12 to time zero values. Data were then pooled from three and five independent experiments for mefloquine and WR069878 respectively.

[8] = Description: The AAQMs indicated in Table 1 (10 μM) were added to a mixture containing an NADPH-regenerating buffer (1.25 mM β-NADP+, 3.3 mM glucose-6-phosphate, and 3.3 mM MgCl2) and 0.5 mg/ml pooled human liver microsomes to a final volume of 125 μl. The mixtures were incubated for 5 minutes at 37° C. and the reactions were initiated by adding 25 μl glucose-6-phosphate dehydrogenase to a final concentration of 1 unit/ml. The reactions were maintained at 37° C. until they were terminated by the addition of an equal volume of 100% ice cold acetonitrile at 0, 10, 30, 60, and 120 minutes. Samples were centrifuged to pellet the proteins and the supernatant was analyzed by LC-MS/MS in duplicate using fast LC gradient or isocratic methods. AAQM concentrations were quantified with external calibration, using plots of response v. amount. Chromatograms were analyzed using the mass spectrometry software Xcalibur® QuanBrowser (for ThermoFinnigan® instruments) or MassLynx® (for Waters® instruments). Concentrations of AAQMs remaining at each time point were calculated using the unknown peak areas and corresponding calibration curves. In order to calculate the half-life, a first-order rate of decay was assumed. […] All reagents were purchased from Sigma except for the microsomes, which were obtained from BD Gentest®. For metabolite identification, samples were prepared as described above with human liver microsomes. Additional samples were prepared with for each AAQM using mouse, rat, and rhesus monkey liver microsomes. Samples were separated using an LC gradient method and analyzed by full scan LC-MS and LC-MS/MS. […] These MS/MS data were also used to do preliminary structural elucidation. […] The relative percentage of formation of each metabolite was determined in a semi-quantitative manner since standards of each metabolite were not available. Peak areas of each detected AAQM metabolite and the internal standard were determined, and their ratios were calculated as metabolite area/internal standard area. The percent formation of each metabolite was determined as the area ratio divided by the sum of all the metabolite area ratios.

- IC50 [2]: 7230 ng/mL (≈ 9.66 µM)
- FIC (IC50 in combination/IC50 alone) [3]: 0.249
SMILES: CC[C@H]1OC(=O)[C@H](C)[C@@H](O[C@H]2C[C@@](C)(OC)[C@@H](O)[C@H](C)O2)[C@H](C)[C@@H](O[C@@H]2O[C@H](C)C[C@H](N(C)C)[C@H]2O)[C@](C)(O)C[C@@H](C)CN(C)[C@H](C)[C@@H](O)[C@]1(C)O [azithromycin, reference compound]

- Activity against P. falciparum TM91C235 (IC50 in ng/ml) [4]: 5.2 ng/mL
SMILES: CCCCN(CCCC)CC(O)c1cc(-c2ccc(Cl)cc2)nc2c(C)cccc12 (stereo not shown) [WR211925]
- IC50 [7]: 600 µM

- Activity against P. falciparum TM91C235 (IC50 in ng/ml) [4]: 8.0 ng/mL
SMILES: CCCCN(CCCC)CC(O)c1cc(-c2ccc(I)cc2)nc2c(Cl)cc(Cl)cc12 (stereo not shown) [WR106752]

- Route of metabolic transformation [8]: N-dealkylation
- Activity against P. falciparum TM91C235 (IC50 in ng/ml) [4]: 1.1 ng/mL
SMILES: CCN(CC)CC(O)c1cc(-c2ccc(Cl)cc2)nc2c(Cl)cc(Cl)cc12 (stereo not shown) [WR041294]
- IC50 [7]: 60 µM

- Activity against P. falciparum TM91C235 (IC50 in ng/ml) [4]: 7.7 ng/mL
SMILES: CCCCCCN(CCCCCC)CC(O)c1cc(-c2ccccc2)nc2c(Cl)cccc12 (stereo not shown) [WR211679]

- Activity against P. falciparum TM91C235 (IC50 in ng/ml) [4]: 1.6 ng/mL
SMILES: CCCCN(CCCC)CC(O)c1cc(-c2ccc(Cl)cc2)nc2cc(F)ccc12 (stereo not shown) [WR081049]
- IC50 [7]: 200 µM

- Route of metabolic transformation [8]: hydroxylation
- Activity against P. falciparum TM91C235 (IC50 in ng/ml) [4]: 0.48 ng/mL
- TM91C235 IC90 [4]: <0.5 ng/mL
- Mean peak concentration [5]: 28 ng/mL
- Plasma conc on day 1 (ng/ml) 2 h [5]: 27 ng/mL
- Plasma conc on day 1 (ng/ml) 24 h [5]: 2.7 ng/mL
- Plasma conc. on day 7 (ng/ml) 2 h [5]: 30 ng/mL
- Plasma conc. on day 7 (ng/ml) 24 h [5]: 3.8 ng/mL
SMILES: CCCCNCC(O)c1cc(-c2ccc(Cl)cc2)nc2c(C)cc(C)cc12 (stereo not shown) [WR176399]
- Outcome in Aotus [6]: cleared parasitemias, but recrudescence was subsequently observed; also recorded: Clear (R21)
- IC50 [7]: 600 µM

- Activity against P. falciparum TM91C235 (IC50 in ng/ml) [4]: 3.3 ng/mL
SMILES: CCCC[N+]([O-])(CCCC)CC(O)c1cc(-c2ccc(Cl)cc2)nc2c(Cl)cc(Cl)cc12 (stereo not shown) [WR098656]
- IC50 [7]: 60 µM

The next lines start with the compound.

SMILES: CCN(CC)CCCC(C)Nc1ccnc2cc(Cl)ccc12 (stereo not shown) [chloroquine]
- Cure rate [1]: 11-20%

SMILES: CCCCN(CCCC)CC(O)c1cc(-c2ccc(Cl)cc2)nc2ccc(Cl)cc12 (stereo not shown) [WR035058]
- Activity against P. falciparum TM91C235 (IC50 in ng/ml) [4]: 2.7 ng/mL
- TM91C235 IC90 [4]: 8.5 ng/mL
- Mean peak concentration [5]: 413 ng/mL
- Plasma conc on day 1 (ng/ml) 2 h [5]: 454 ng/mL
- Plasma conc on day 1 (ng/ml) 24 h [5]: 84 ng/mL
- Plasma conc. on day 7 (ng/ml) 2 h [5]: 371 ng/mL
- Plasma conc. on day 7 (ng/ml) 24 h [5]: 105 ng/mL
- Outcome in Aotus [6]: Cures and Cure
- IC50 [7]: 600 µM

SMILES: O=C(O)c1cc(C(F)(F)F)nc2c(C(F)(F)F)cccc12 [Mefloquine metabolite, reference compound]
- Killing of neurons ([7]; at 1000 microM, FIG. 1): only partial killing

SMILES: CCCCNCC(O)c1cc(-c2ccc(Cl)cc2)nc2c(Cl)cc(Cl)cc12 (stereo not shown) [WR007524]
- Route of metabolic transformation [8]: not at all
- Activity against P. falciparum TM91C235 (IC50 in ng/ml) [4]: 0.63 ng/mL
- IC50 [7]: 60 µM

SMILES: CCCCN(CCCC)CC(O)c1cc(-c2ccc(Cl)cc2)nc2c(Cl)cc(Cl)cc12 (stereo not shown) [WR029252]
- Activity against P. falciparum TM91C235 (IC50 in ng/ml) [4]: 7.6 ng/mL
- TM91C235 IC90 [4]: 20 ng/mL
- Mean peak concentration [5]: 44 ng/mL
- Plasma conc on day 1 (ng/ml) 2 h [5]: 67 ng/mL
- Plasma conc on day 1 (ng/ml) 24 h [5]: 1.0 ng/mL
- Plasma conc. on day 7 (ng/ml) 2 h [5]: 21 ng/mL
- Plasma conc. on day 7 (ng/ml) 24 h [5]: 1.0 ng/mL
- Outcome in Aotus [6]: Failure
- IC50 [7]: 600 µM
